The nature of assay [1]: Antiproliferative activity against human DU145 cells after 48 hrs by MTT assay. Format: functional, cell-based. The following applies: DU-145, 48 h. (In general: Formazan colour is commonly taken as a measure of viable cells.)
The nature of assay [2]: Antiproliferative activity against human PC3 cells after 48 hrs by MTT assay. Format: functional, cell-based. The conditions noted are these: PC-3, 48 h.
Assay [3] can be described thus: Antiproliferative activity against human BGC823 cells after 48 hrs by MTT assay. It counts as functional, cell-based. The conditions noted are these: BGC-823, 48 h.
Assay [4] in a line: Antiproliferative activity against human alpha-2 cells after 48 hrs by MTT assay. Format: functional, cell-based.
For the next assay, the system named is MDA-MB-231. As to the kind of experiment: Antiproliferative activity against human MDA-MB-231 cells after 48 hrs by MTT assay. It counts as functional, cell-based. The conditions noted are these: MDA-MB-231, 48 h.
Assay [5] in a line: Cytotoxicity against human IOSE-144 cells after 48 hrs by MTT assay. It counts as cell-based. The following applies: IOSE-144, 48 h.

As for `CC(C)(O)CCC[C@@](C)(O)[C@H]1CC[C@]2(C)[C@@H]1[C@H](O)C[C@@H]1[C@@]3(C)CC[C@H](O)C(C)(C)[C@@H]3CC[C@]12C`, the IC50 in assay [1] is 53 µM; in assay [2], 57 µM; in assay [3] it was 46 µM; in assay [4], 48 µM; with MDA-MB-231, 33 µM; in assay [5] it was above 100 µM.

Turning to `CC[C@H](C)[C@H](NC(=O)OC(C)(C)C)C(=O)O[C@@H]1C[C@@H]2[C@@]3(C)CC[C@H](O)C(C)(C)[C@@H]3CC[C@@]2(C)[C@]2(C)CC[C@H]([C@](C)(O)CCCC(C)(C)O)[C@@H]12`, the IC50 was above 100 µM in assay [1]; above 100 µM in assay [2]; above 100 µM in assay [3]; 81 µM in assay [4]; above 100 µM in the assay with MDA-MB-231; above 100 µM in assay [5].

In the case of `CC(C)(O)CCC[C@@](C)(O)[C@H]1CC[C@]2(C)[C@@H]1[C@H](O)C[C@@H]1[C@@]3(C)CC[C@H](OC(=O)[C@H](CO)NC(=O)OC(C)(C)C)C(C)(C)[C@@H]3CC[C@]12C`, the concentration for half-maximal inhibition (IC50) was 25 µM in assay [1]; 25 µM in assay [2]; 21 µM in assay [3]; 24 µM in assay [4]; 18 µM in the assay with MDA-MB-231; above 100 µM in assay [5].

Turning to `O=c1[nH]cc(F)c(=O)[nH]1` [FLUOROURACIL], the concentration for half-maximal inhibition (IC50) came to 38 µM in assay [1]; 46 µM in assay [2]; 37 µM in assay [3]; 33 µM in assay [4]; 20 µM with MDA-MB-231; 29 µM in assay [5].

As for `CC(C)(O)CCC[C@@](C)(O)[C@H]1CC[C@]2(C)[C@@H]1[C@H](O)C[C@@H]1[C@@]3(C)CC[C@H](OC(=O)[C@H](Cc4cnc[nH]4)NC(=O)OC(C)(C)C)C(C)(C)[C@@H]3CC[C@]12C`, the IC50 in assay [1] is 21 µM; in assay [2], 28 µM; in assay [3] it was 27 µM; in assay [4], 20 µM; in the assay on MDA-MB-231 it was 17 µM; in assay [5] it was above 100 µM.

Regarding `CC[C@H](C)[C@H](N)C(=O)O[C@H]1CC[C@]2(C)[C@H]3C[C@@H](O)[C@@H]4[C@@H]([C@](C)(O)CCCC(C)(C)O)CC[C@@]4(C)[C@]3(C)CC[C@H]2C1(C)C`, the IC50 was 14 µM in assay [1]; 8.4 µM in assay [2]; 10 µM in assay [3]; 17 µM in assay [4]; 6.4 µM in the assay on MDA-MB-231; above 100 µM in assay [5].

`CC(C)(O)CCC[C@@](C)(O)[C@H]1CC[C@]2(C)[C@@H]1[C@H](O)C[C@@H]1[C@@]3(C)CC[C@H](OC(=O)[C@H](CCC(=O)OCc4ccccc4)NC(=O)OC(C)(C)C)C(C)(C)[C@@H]3CC[C@]12C`: the half-inhibitory concentration (IC50) in assay [1] was 54 µM; in assay [2], 29 µM; in assay [3], 23 µM; in assay [4] it was 28 µM; with MDA-MB-231 it was 19 µM; in assay [5], above 100 µM.

With `CC(C)(O)CCC[C@@](C)(O)[C@H]1CC[C@]2(C)[C@@H]1[C@H](O)C[C@@H]1[C@@]3(C)CC[C@H](OC(=O)[C@H](Cc4ccc(O)cc4)NC(=O)OC(C)(C)C)C(C)(C)[C@@H]3CC[C@]12C`, the IC50 in assay [1] was 34 µM; in assay [2], 25 µM; in assay [3] it was 37 µM; in assay [4] it was 33 µM; in the assay on MDA-MB-231, 19 µM; in assay [5], above 100 µM.

As for `C[C@@H](O)[C@H](NC(=O)OC(C)(C)C)C(=O)O[C@H]1CC[C@]2(C)[C@H]3C[C@@H](O)[C@@H]4[C@@H]([C@](C)(O)CCCC(C)(C)O)CC[C@@]4(C)[C@]3(C)CC[C@H]2C1(C)C`, the IC50 was 25 µM in assay [1]; 28 µM in assay [2]; 22 µM in assay [3]; 24 µM in assay [4]; 14 µM in the assay with MDA-MB-231; above 100 µM in assay [5].

With `C[C@H](N)C(=O)O[C@@H]1C[C@@H]2[C@@]3(C)CC[C@H](O)C(C)(C)[C@@H]3CC[C@@]2(C)[C@]2(C)CC[C@H]([C@](C)(O)CCCC(C)(C)O)[C@@H]12`, the IC50 in assay [1] is 14 µM; in assay [2] it was 8.8 µM; in assay [3] it was 9 µM; in assay [4], 9.2 µM; in the assay with MDA-MB-231 it was 5.7 µM; in assay [5], above 100 µM.

`CC[C@H](C)[C@H](NC(=O)OC(C)(C)C)C(=O)O[C@H]1CC[C@]2(C)[C@H]3C[C@@H](OC(=O)[C@@H](NC(=O)OC(C)(C)C)[C@@H](C)CC)[C@@H]4[C@@H]([C@](C)(O)CCCC(C)(C)O)CC[C@@]4(C)[C@]3(C)CC[C@H]2C1(C)C`: the concentration for half-maximal inhibition (IC50) in assay [1] is above 100 µM; in assay [2], above 100 µM; in assay [3], above 100 µM; in assay [4], 69 µM; in the assay on MDA-MB-231 it was above 100 µM; in assay [5] it was above 100 µM.

Consider `CC(C)C[C@H](NC(=O)OC(C)(C)C)C(=O)O[C@@H]1C[C@@H]2[C@@]3(C)CC[C@H](O)C(C)(C)[C@@H]3CC[C@@]2(C)[C@]2(C)CC[C@H]([C@](C)(O)CCCC(C)(C)O)[C@@H]12`, for which the IC50 in assay [1] is above 100 µM; in assay [2], above 100 µM; in assay [3] it was above 100 µM; in assay [4] it was 86 µM; in the assay with MDA-MB-231, above 100 µM; in assay [5], above 100 µM.

Turning to `C[C@H](NC(=O)OC(C)(C)C)C(=O)O[C@H]1CC[C@]2(C)[C@H]3C[C@@H](OC(=O)[C@H](C)NC(=O)OC(C)(C)C)[C@@H]4[C@@H]([C@](C)(O)CCCC(C)(C)O)CC[C@@]4(C)[C@]3(C)CC[C@H]2C1(C)C`, the IC50 was above 100 µM in assay [1]; above 100 µM in assay [2]; 81 µM in assay [3]; 57 µM in assay [4]; 80 µM with MDA-MB-231; above 100 µM in assay [5].

With `CC(C)(O)CCC[C@@](C)(O)[C@H]1CC[C@]2(C)[C@@H]1[C@H](O)C[C@@H]1[C@@]3(C)CC[C@H](OC(=O)[C@H](CCCNC(=N)N)NC(=O)OC(C)(C)C)C(C)(C)[C@@H]3CC[C@]12C`, the IC50 in assay [1] was 11 µM; in assay [2] it was 12 µM; in assay [3], 12 µM; in assay [4] it was 13 µM; in the assay with MDA-MB-231, 8 µM; in assay [5] it was above 100 µM.

In the case of `CC(C)(O)CCC[C@@](C)(O)[C@H]1CC[C@]2(C)[C@@H]1[C@H](OC(=O)[C@H](CCC(=O)OCc1ccccc1)NC(=O)OC(C)(C)C)C[C@@H]1[C@@]3(C)CC[C@H](O)C(C)(C)[C@@H]3CC[C@]12C`, the IC50 was above 100 µM in assay [1]; above 100 µM in assay [2]; above 100 µM in assay [3]; 85 µM in assay [4]; 79 µM with MDA-MB-231; above 100 µM in assay [5].

In the case of `CC(C)C[C@H](N)C(=O)O[C@H]1CC[C@]2(C)[C@H]3C[C@@H](O)[C@@H]4[C@@H]([C@](C)(O)CCCC(C)(C)O)CC[C@@]4(C)[C@]3(C)CC[C@H]2C1(C)C`, the half-inhibitory concentration (IC50) in assay [1] is 7.6 µM; in assay [2], 7.9 µM; in assay [3], 8.9 µM; in assay [4], 16 µM; in the assay on MDA-MB-231, 4.8 µM; in assay [5], above 100 µM.

Take `C[C@H](NC(=O)OC(C)(C)C)C(=O)O[C@@H]1C[C@@H]2[C@@]3(C)CC[C@H](O)C(C)(C)[C@@H]3CC[C@@]2(C)[C@]2(C)CC[C@H]([C@](C)(O)CCCC(C)(C)O)[C@@H]12`: the IC50 is above 100 µM in assay [1]; 49 µM in assay [2]; 40 µM in assay [3]; 34 µM in assay [4]; 46 µM in the assay on MDA-MB-231; above 100 µM in assay [5].

`CC(C)(O)CCC[C@@](C)(O)[C@H]1CC[C@]2(C)[C@@H]1[C@H](O)C[C@@H]1[C@@]3(C)CC[C@H](OC(=O)[C@@H](N)Cc4cnc[nH]4)C(C)(C)[C@@H]3CC[C@]12C`: the 50% inhibitory concentration (IC50) in assay [1] is 9.6 µM; in assay [2] it was 10 µM; in assay [3], 12 µM; in assay [4], 11 µM; with MDA-MB-231, 5.3 µM; in assay [5], above 100 µM.

For `C[C@H](N)C(=O)O[C@H]1CC[C@]2(C)[C@H]3C[C@@H](O)[C@@H]4[C@@H]([C@](C)(O)CCCC(C)(C)O)CC[C@@]4(C)[C@]3(C)CC[C@H]2C1(C)C`, the IC50 was 8 µM in assay [1]; 7.6 µM in assay [2]; 7.9 µM in assay [3]; 11 µM in assay [4]; 4.8 µM with MDA-MB-231; above 100 µM in assay [5].

By IC50 is commonly meant the midpoint of a concentration-inhibition curve. Lower therefore signals greater potency in that assay.
